Tested on: Plasmodium berghei
Assay: Luciferase/luciferin-expressing antifolate-resistant parasites were used to infect a culture of HepG2 cells that were pre-incubated with compounds. Infected hepatocytes emit light due to the luciferase reaction. Assay results are presented as the percent inhibition of light emission compared to control. […]
Assay type: functional
Conditions: sporozoite; for IC90: read-out: LUCIFERASE INFECTION ASSAY - IC90

Row | Compound | IC90 | also measured
1 | COc1ccc(CNc2ncnc3ccccc23)cc1 | > 10 µM | IC50 (PBLUC_HILL_SLOPE 1.65, PBLUC_R_SQUARED 0.126, read-out: LUCIFERASE INFECTION ASSAY - IC50): 3.67 µM
2 | CCOC(=O)c1c(C)nn(-c2ccc(NC(=O)c3cccs3)cc2)c1C | 5.59 µM | IC50 (PBLUC_HILL_SLOPE 1.61, PBLUC_R_SQUARED 0.613, read-out: LUCIFERASE INFECTION ASSAY - IC50): 1.43 µM
3 | Cc1ccccc1-n1c(C)cc(/C=C(\C#N)C(=O)NCC2CCCO2)c1C (stereo not drawn) | 6.25 µM | IC50 (PBLUC_HILL_SLOPE 1.57, PBLUC_R_SQUARED 0.725, read-out: LUCIFERASE INFECTION ASSAY - IC50): 1.55 µM
4 | Cc1ccc2nc(-c3ccc(NC(=O)CN4C(=O)NC(C)(c5ccc(OC(F)F)cc5)C4=O)cc3)sc2c1 (stereo not drawn) | > 10 µM | IC50 (PBLUC_HILL_SLOPE 1.6, PBLUC_R_SQUARED 0.077, read-out: LUCIFERASE INFECTION ASSAY - IC50): > 10 µM
5 | CS(=O)(=O)c1ccc2nc(NC(=O)c3cc(-c4ccccc4)nn3-c3ccccc3)sc2c1 | > 10 µM | IC50 (PBLUC_HILL_SLOPE 1.63, PBLUC_R_SQUARED 0.444, read-out: LUCIFERASE INFECTION ASSAY - IC50): 4.67 µM
6 | Cc1ccc(S(=O)(=O)Nc2ccc(Nc3nccn4c(-c5ccccc5Oc5ccccc5)cnc34)cc2)cc1 | 5.41 µM | IC50 (PBLUC_HILL_SLOPE 1.64, PBLUC_R_SQUARED 0.733, read-out: LUCIFERASE INFECTION ASSAY - IC50): 1.42 µM
7 | Cc1ccc(SCc2ccc(-c3nc4ccccc4s3)cc2)cc1 | > 9.5 µM | IC50 (PBLUC_HILL_SLOPE 1.56, PBLUC_R_SQUARED 0.316, read-out: LUCIFERASE INFECTION ASSAY - IC50): 4.39 µM
8 | O=S(=O)(c1cc(C(F)(F)F)cc(C(F)(F)F)c1)N1CCc2c([nH]c3ccccc23)C1C(F)(F)F (stereo not drawn) | > 6.39 µM | IC50 (PBLUC_HILL_SLOPE 1.65, PBLUC_R_SQUARED 0.099, read-out: LUCIFERASE INFECTION ASSAY - IC50): 5.02 µM
9 | Cc1ccc(-n2c(C)cc(C(=O)COC(=O)c3cccn3C)c2C)cc1 | > 10 µM | IC50 (PBLUC_HILL_SLOPE 1.64, PBLUC_R_SQUARED 0.0485, read-out: LUCIFERASE INFECTION ASSAY - IC50): 5.54 µM
10 | CC(=O)NC12CC3CC(C1)CC(C(=O)Nc1ccc4c(c1)-c1ccccc1C4)(C3)C2 | 5.37 µM | IC50 (PBLUC_HILL_SLOPE 1.58, PBLUC_R_SQUARED 0.82, read-out: LUCIFERASE INFECTION ASSAY - IC50): 1.34 µM
11 | N#Cc1ccc(-c2cc(C3(CNc4cccc(OC(F)(F)F)c4)CC3)ccn2)cc1 | > 10 µM | IC50 (PBLUC_HILL_SLOPE 1.65, PBLUC_R_SQUARED 0.178, read-out: LUCIFERASE INFECTION ASSAY - IC50): > 10 µM
12 | O=C(CN(Cc1ccco1)S(=O)(=O)c1ccccc1F)Nc1ccc(SC(F)F)cc1 | > 10 µM | IC50 (PBLUC_HILL_SLOPE 1.6, PBLUC_R_SQUARED 0.718, read-out: LUCIFERASE INFECTION ASSAY - IC50): 3.47 µM
13 | Cc1c(S(=O)(=O)c2ccc(Cl)cc2)csc1C(=O)NCc1ccco1 | > 8.34 µM | IC50 (PBLUC_HILL_SLOPE 1.58, PBLUC_R_SQUARED 0.729, read-out: LUCIFERASE INFECTION ASSAY - IC50): 2.88 µM
14 | N=C(N)N/N=C\c1cccc2ccccc12 | > 15.5 µM | IC50 (PBLUC_HILL_SLOPE 1.61, PBLUC_R_SQUARED 0.436, read-out: LUCIFERASE INFECTION ASSAY - IC50): 6.92 µM
15 | CC(=O)c1cccc(-c2cnc3cnc(-c4cccc(C(N)=O)c4)cn23)c1 | > 9.26 µM | IC50 (PBLUC_HILL_SLOPE 1.58, PBLUC_R_SQUARED 0.572, read-out: LUCIFERASE INFECTION ASSAY - IC50): 3.69 µM
16 | C#CCNS(=O)(=O)c1ccc(C(=O)Nc2ccccc2O)cc1 | 7.83 µM | IC50 (PBLUC_HILL_SLOPE 1.57, PBLUC_R_SQUARED 0.611, read-out: LUCIFERASE INFECTION ASSAY - IC50): 1.93 µM
17 | CC(C)N1CCC(NC(=O)c2ccc(COc3ccc4ccccc4c3)o2)CC1 | 9.06 µM | IC50 (PBLUC_HILL_SLOPE 1.64, PBLUC_R_SQUARED 0.625, read-out: LUCIFERASE INFECTION ASSAY - IC50): 2.37 µM
18 | COC(=O)c1c(-c2ccccc2Cl)noc1/C=C/c1c[nH]c(=O)c2c(-c3ccccc3Cl)noc12 | > 6.49 µM | IC50 (PBLUC_HILL_SLOPE 1.63, PBLUC_R_SQUARED 0.42, read-out: LUCIFERASE INFECTION ASSAY - IC50): 3.61 µM
19 | COc1ccc(C(=O)Nc2ccc3nc(-c4cc(OC)c(OC)c(OC)c4)nn3c2)cc1OC | 4.55 µM | IC50 (PBLUC_HILL_SLOPE 1.61, PBLUC_R_SQUARED 0.589, read-out: LUCIFERASE INFECTION ASSAY - IC50): 1.17 µM
20 | Cc1ccc(C)c(NC(=S)[C-](C(=O)c2ccc3c(c2)OCCO3)[n+]2ccccc2)c1 | > 10 µM | IC50 (PBLUC_HILL_SLOPE 1.61, PBLUC_R_SQUARED 0.831, read-out: LUCIFERASE INFECTION ASSAY - IC50): 5.38 µM

Row | Compound | IC90 | also measured
21 | CCNC(=O)c1nn(Cc2ccccc2)c2c1CC(NCC(C)C)CC2 (stereo not drawn) | > 9.31 µM | IC50 (PBLUC_HILL_SLOPE 1.56, PBLUC_R_SQUARED 0.224, read-out: LUCIFERASE INFECTION ASSAY - IC50): 6.64 µM
22 | CC1CCN(CCOc2ccc(-c3n[nH]cc3-c3ccccc3)c(O)c2)CC1 | > 8.74 µM | IC50 (PBLUC_HILL_SLOPE 1.57, PBLUC_R_SQUARED 0.734, read-out: LUCIFERASE INFECTION ASSAY - IC50): > 8.74 µM
23 | O=C(Nc1ccccc1O)c1ccc(Cn2ccnc2)cc1 | 6.19 µM | IC50 (PBLUC_HILL_SLOPE 1.6, PBLUC_R_SQUARED 0.598, read-out: LUCIFERASE INFECTION ASSAY - IC50): 1.57 µM
24 | CN1/C(=C\C(=O)COC(=O)C2Cc3ccccc3CN2C(=O)c2ccccc2)C(C)(C)c2ccccc21 (stereo not drawn) | > 10 µM | IC50 (PBLUC_HILL_SLOPE 1.63, PBLUC_R_SQUARED 0.576, read-out: LUCIFERASE INFECTION ASSAY - IC50): 3.35 µM
25 | O=C(Nc1ccccc1)ON=C1CC2CCCC(C1)N2Cc1ccccc1 | > 9.08 µM | IC50 (PBLUC_HILL_SLOPE 1.59, PBLUC_R_SQUARED 0.239, read-out: LUCIFERASE INFECTION ASSAY - IC50): > 9.08 µM
26 | Cc1nc(C(F)(F)F)nc(NCc2ccc(Cl)cc2)c1C | > 10.5 µM | IC50 (PBLUC_HILL_SLOPE 1.61, PBLUC_R_SQUARED 0.626, read-out: LUCIFERASE INFECTION ASSAY - IC50): 3.42 µM
27 | CC(C)c1cc(C(=O)N2CCc3c(cc(-c4cccc(F)c4)c(=O)n3CCN3CCCCC3)C2)[nH]n1 | > 6.71 µM | IC50 (PBLUC_HILL_SLOPE 1.58, PBLUC_R_SQUARED 0.377, read-out: LUCIFERASE INFECTION ASSAY - IC50): 1.78 µM
28 | O=C(NC1CC1)c1ccc(CN(C2CC2)S(=O)(=O)/C=C/c2ccccc2)cc1 | 4.03 µM | IC50 (PBLUC_HILL_SLOPE 1.61, PBLUC_R_SQUARED 0.829, read-out: LUCIFERASE INFECTION ASSAY - IC50): 1.03 µM
29 | Clc1ccc2c(NCc3ccc(-n4cccn4)nc3)ncnc2c1 | > 10 µM | IC50 (PBLUC_HILL_SLOPE 1.57, PBLUC_R_SQUARED 0.509, read-out: LUCIFERASE INFECTION ASSAY - IC50): 3.37 µM
30 | CCOC(=O)c1c(C)[nH]c(C(=O)Nc2ccnn2Cc2ccc(Cl)cc2Cl)c1C | > 10 µM | IC50 (PBLUC_HILL_SLOPE 1.6, PBLUC_R_SQUARED 0.586, read-out: LUCIFERASE INFECTION ASSAY - IC50): 3.97 µM
31 | COc1ncccc1-c1cc2c(cn1)nc(Nc1cccc(C(F)(F)F)c1)n2C | > 10 µM | IC50 (PBLUC_HILL_SLOPE 1.56, PBLUC_R_SQUARED 0.782, read-out: LUCIFERASE INFECTION ASSAY - IC50): 2.89 µM
32 | CC(NCc1ccc(-c2ccccc2)s1)c1ccc(-n2ccnc2)cc1 (stereo not drawn) | > 10 µM | IC50 (PBLUC_HILL_SLOPE 1.59, PBLUC_R_SQUARED 0.529, read-out: LUCIFERASE INFECTION ASSAY - IC50): 7.08 µM
33 | Cc1nc2ccc(NC(=O)c3ccc4[nH]c(C)c(C)c4c3)cc2s1 | > 9.84 µM | IC50 (PBLUC_HILL_SLOPE 1.58, PBLUC_R_SQUARED 0.399, read-out: LUCIFERASE INFECTION ASSAY - IC50): > 9.84 µM
34 | CNc1nc2cnc(-c3ccc(F)c(Cl)c3)cc2n1Cc1ccc(OC)c(OC)c1 | 3.93 µM | IC50 (PBLUC_HILL_SLOPE 1.59, PBLUC_R_SQUARED 0.826, read-out: LUCIFERASE INFECTION ASSAY - IC50): 0.992 µM
35 | O=C(NCc1ccc(Cn2ccnc2)cc1)c1csc(-c2cccs2)n1 | > 10 µM | IC50 (PBLUC_HILL_SLOPE 1.64, PBLUC_R_SQUARED 0.565, read-out: LUCIFERASE INFECTION ASSAY - IC50): 6.98 µM
36 | COc1ccc(N2C(=O)c3ccccc3C(C=NNC(=O)c3sc4ccccc4c3Cl)C2=O)cc1OC (stereo not drawn) | > 10 µM | IC50 (PBLUC_HILL_SLOPE 1.6, PBLUC_R_SQUARED 0.564, read-out: LUCIFERASE INFECTION ASSAY - IC50): 3.85 µM
37 | COc1ccc(/C=C2\CCCC3C2=NN(C(=O)CSc2ccccn2)C3c2ccc(OC)cc2)cc1 (stereo not drawn) | 9.76 µM | IC50 (PBLUC_HILL_SLOPE 1.58, PBLUC_R_SQUARED 0.267, read-out: LUCIFERASE INFECTION ASSAY - IC50): 2.44 µM
38 | Cc1ccc(S(=O)(=O)Nc2ccc(Nc3nccn4c(-c5ccc(OC(F)(F)F)cc5)cnc34)cc2)cc1 | 3.49 µM | IC50 (PBLUC_HILL_SLOPE 1.58, PBLUC_R_SQUARED 0.687, read-out: LUCIFERASE INFECTION ASSAY - IC50): 0.867 µM
39 | Cc1cc(C(=O)COC(=O)c2[nH]nc3ccccc23)c(C)n1Cc1cccs1 | 6.39 µM | IC50 (PBLUC_HILL_SLOPE 1.56, PBLUC_R_SQUARED 0.399, read-out: LUCIFERASE INFECTION ASSAY - IC50): 1.56 µM
